From patent US6368631B1, “Fine grain carriers and medicinal composition prepared with the use of the same” (Daiichi Pharmaceutical Co., Ltd., priority 1996, dated 2002)

What was measured:
[1] = In vivo evaluation of the complex of nanoparticles and PSP: plasma PSP concentration and pharmacokinetic parameters after duodenal administration; settings: male, SD, rats, 9.4 mg in terms of PSP per rat, n=6, mean ± S.D.
Procedure: SD male rats (7 weeks old, about 200 g) were fasted for 24 hours. Under etherization, laparotomy was performed. By use of an injection needle, which was inserted through the pyrolus, the nanoparticle preparation (0.5 ml) prepared in Example 1 or the control preparation (0.5 ml) was administered duodenumally to the rats (dose: 9.4 mg in terms of PSP per rat; n=6). The cut was closed immediately after administration. Blood was collected from the carotid artery at 0.5, 1, 2, 4, 8, 12, and 24 hours following the administration. In accordance with the method of […] (Journal of Pharmaceutical Science, 79, 334, 1990), the plasma PSP concentration of each rat was measured. The plasma (0.3 ml) that had been centrifugally separated from the collected blood, purified water (0.3 ml), and aqueous 0.1 N NaOH solution (0.9 ml) were mixed. The mixture was filtered through use of an ultrafilter membrane (molecular weight of fractionation=10,000), to thereby remove proteins, etc. The filtrate was used as a sample solution. Separately, standard solutions were prepared through use of aqueous PSP-Na solutions (starting from 9.4 mg/ml in terms of PSP, a series of 2-fold dilutions) (0.3 ml each), a blank plasma from each rat (0.3 ml), and aqueous 0.1 N NaOH solution (0.9 ml) were mixed and ultrafiltered. For each of the sample solutions and standard solutions, absorption was determined through use of a spectrometer at the wavelength of 560 nm. Based on the results obtained from the standard solutions, a calibration curve was obtained, and the plasma PSP concentrations were measured. Based on the obtained time-plasma PSP concentration profile, pharmacokinetic parameters were calculated.

[2] = test system: ionized calcium concentration in blood; assay: In vivo evaluation of nanoparticle-sCT preparations: change of blood ionized calcium concentration after peroral administration; parameters: species or system SD male rats; settings: rats fasted 24 h, 0.5 ml preparation, single administration
Procedure: To SD male rats (7 weeks old, about 200 g) fasted for 24 hours were administered perorally the nanoparticle preparation (0.5 ml) prepared in Example 3 or the control preparation (0.5 ml) (n=5). After administration, blood was collected from the tail vein of each rat in an amount of about 60 μl at 40 minutes, 80 minutes, 2, 3, 4, 6, and 8 hours following the administration.
Using a 634 Ca^++/pH analyzer (Ciba-Coning), the concentration of ionized calcium in the collected blood was measured. The difference between the ionized calcium concentration at time 0 and that at each of the aforementioned times was calculated and plotted. From the plots, presence or absence of the effect of absorption enhancement obtained through formation of nanoparticles was determined.
In this connection, sCT is known to have the pharmacological effect of reducing the blood ionized calcium concentration.
By use of the nanoparticle preparation or the control preparation obtained in Example 7, the procedure of Example 4 was repeated to thereby determine the presence or absence of the effect of absorption enhancement obtained by the formation of nanoparticles.
By use of the nanoparticle preparation or the control preparation obtained in Example 9, the procedure of Example 4 was repeated to thereby determine the presence or absence of the effect of absorption enhancement obtained by the formation of nanoparticles. […]

AUC(0-inf) [1] [ng·h/mL] | Cmax [1] [ng/mL] | Tmax [1] [h] | MRT last ([1]; read-out: MRT0-24 h) [h] | Molecule | effect of reducing the blood ionized calcium concentration [2]
9970 ± 2200 | 2000 ± 290 | 0.92 ± 0.2 | 4.57 ± 0.34 | O=S1(=O)OC(c2ccc(O)cc2)(c2ccc(O)cc2)c2ccccc21 [Aq. PSP-Na sol. (control prep.), phenolsulfonphthalein] | –
– | – | – | – | salmon calcitonin [aqueous sCT solution] | slightly decreased
